Columns and labels:
DIGSA = test: Pre-emergence herbicidal action against DIGSA; assay type: in vivo, Digitaria sanguinalis
In short: (§1)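 Greenhouse pots of sandy loam held seeds covered with soil, onto which the compound was applied before emergence. An aqueous suspension or emulsion of WP or EC was used at 600 to 800 l/ha with 0.2% wetting agent. Percent damage was judged visually at 3 weeks.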

VIOTR [1] = test: Pre-emergence herbicidal action against VIOTR; assay type: in vivo, Viola tricolor
In short: as §1

AMARE [2] = test: Post-emergence herbicidal action against AMARE; assay type: in vivo, Amaranthus retroflexus; conditions: 20 g/ha, visual assessment about 3 weeks after treatment, 100% = plants have died, 0% = like control plants
In short: (§2)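 Foliar application at one-leaf stage of formulated test compounds, aqueous spray at 600–800 l/ha with 0.2% wetting agent. Greenhouse, optimal conditions, ~3 weeks; damage scored visually in % relative to untreated plants.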

ABUTH [3] = test: Post-emergence herbicidal action against ABUTH; assay type: in vivo, Abutilon theophrasti; conditions: dosage 20 g/ha, visual assessment about 3 weeks after treatment vs untreated controls
In short: as §2

AMARE [4] = test: Pre-emergence herbicidal action against AMARE; assay type: in vivo, Amaranthus retroflexus
In short: as §1

MATIN [5] = test: Pre-emergence herbicidal action against MATIN; assay type: in vivo, Matricaria inodora
In short: as §1

ABUTH [6] = test: Pre-emergence herbicidal action against ABUTH; assay type: in vivo, Abutilon theophrasti
In short: as §1

STEME = test: Pre-emergence herbicidal action against STEME; assay type: in vivo, Stellaria media; conditions: dosage 80 g/ha
Source text: Seeds of monocotyledonous and dicotyledonous weed plants and crop plants are laid out in sandy loam soil in wood-fiber pots and covered with soil. The compounds of the invention, formulated in the form of wettable powders (WP) or as emulsion concentrates (EC), are then applied to the surface of the covering soil in the form of an aqueous suspension or emulsion at a water application rate equivalent to 600 to 800 l/ha, with addition of 0.2% wetting agent. After the treatment, the pots are placed in a greenhouse and kept under good growth conditions for the trial plants. The damage to the test plants is scored visually after a test period of 3 weeks by comparison with untreated controls (herbicidal activity in percent (%): 100% activity=the plants have died, 0% activity=like control plants). […] The tables below illustrate, in an illustrative manner, the post-emergence herbicidal action of the compounds of the invention, the herbicidal activity being stated in percent.

VIOTR [7] = test: Post-emergence herbicidal action against VIOTR; assay type: in vivo, Viola tricolor
In short: as §2

POLCO = test: Pre-emergence herbicidal action against POLCO; assay type: in vivo, Polygonum convolvulus; conditions: dosage 80 g/ha
In short: as §1

VERPE [8] = test: Post-emergence herbicidal action against VERPE; assay type: in vivo, Veronica persica; conditions: 20 g/ha
In short: as §2

ECHCG [9] = test: Post-emergence herbicidal action against ECHCG; assay type: in vivo, Echinochloa crus-galli; conditions: dosage 20 g/ha
In short: as §2

MATIN [10] = test: Post-emergence herbicidal action against MATIN; assay type: in vivo, Matricaria inodora; conditions: dosage 20 g/ha
In short: as §2

VERPE [11] = test: Pre-emergence herbicidal action against VERPE; assay type: in vivo, Veronica persica; conditions: dosage 80 g/ha
In short: as §1

AVEFA [12] = test: Post-emergence herbicidal action against AVEFA; assay type: in vivo, Avena fatua; conditions: 20 g/ha, visual assessment about 3 weeks after treatment, 100% = plants have died, 0% = like control plants
Method: Seeds of monocotyledonous and dicotyledonous weed and crop plants are laid out in sandy loam soil in wood-fiber pots, covered with soil and cultivated in a greenhouse under good growth conditions. 2 to 3 weeks after sowing, the test plants are treated at the one-leaf stage. The compounds of the invention, formulated in the form of wettable powders (WP) or as emulsion concentrates (EC), are then sprayed onto the green parts of the plants in the form of an aqueous suspension or emulsion at a water application rate equivalent to 600 to 800 l/ha, with addition of 0.2% wetting agent. After the test plants have been left to stand in the greenhouse under optimal growth conditions for about 3 weeks, the action of the preparations is assessed visually in comparison to untreated controls (herbicidal action in percent (%): 100% activity=the plants have died, 0% activity=like control plants). […] The tables below illustrate, in an illustrative manner, the post-emergence herbicidal action of the compounds of the invention, the herbicidal activity being stated in percent.

AVEFA [13] = test: Pre-emergence herbicidal action against AVEFA; assay type: in vivo, Avena fatua
In short: as §1

ECHCG [14] = test: Pre-emergence herbicidal action against ECHCG; assay type: in vivo, Echinochloa crus-galli
In short: as §1

SETVI = test: Pre-emergence herbicidal action against SETVI; assay type: in vivo, Setaria viridis; conditions: dosage 80 g/ha
In short: as §1

[15] = 20 g/ha, scored visually after 3 weeks vs untreated controls, 100% = plants have died, 0% = like control plants
[16] = 80 g/ha, scored visually after 3 weeks vs untreated controls (100% = plants have died, 0% = like control plants)

## CNC(=O)c1c(S(C)(=O)=O)ccc(C(=O)Nc2nnnn2C)c1Cl [Example 1-123]
DIGSA; Digitaria sanguinalis, 504 h, dosage 80 g/ha
  pest or weed control at 80 g/ha: 90%
VIOTR [1]; Viola tricolor, 504 h, dosage 80 g/ha
  pest or weed control at 80 g/ha: 80%
AMARE [2]; Amaranthus retroflexus, 504 h
  pest or weed control at 20 g/ha: 80%
ABUTH [3]; Abutilon theophrasti, 504 h
  pest or weed control at 20 g/ha: 80%
AMARE [4]; Amaranthus retroflexus, 504 h, 20 g/ha, scored visually after 3 weeks vs untreated controls, 100% = plants have died, 0% = like control plants
  pest or weed control at 20 g/ha: 80%
AMARE [4]; Amaranthus retroflexus, 504 h, 80 g/ha, scored visually after 3 weeks vs untreated controls, 100% = plants have died, 0% = like control plants
  pest or weed control at 80 g/ha: 100%
MATIN [5]; Tripleurospermum inodorum, 504 h, dosage 20 g/ha
  pest or weed control at 20 g/ha: 80%
MATIN [5]; Tripleurospermum inodorum, 504 h, dosage 80 g/ha
  pest or weed control at 80 g/ha: 100%
ABUTH [6]; Abutilon theophrasti, 504 h, 80 g/ha, scored visually after 3 weeks vs untreated controls (100% = plants have died, 0% = like control plants)
  pest or weed control at 80 g/ha: 100%
STEME; Stellaria media, 504 h
  pest or weed control at 80 g/ha: 90%
VIOTR [7]; Viola tricolor, 504 h, 20 g/ha
  pest or weed control at 20 g/ha: 100%

## CCn1nnnc1NC(=O)c1ccc(S(C)(=O)=O)c(C(=O)NC)c1Cl [Example 2-123]
DIGSA; dosage 20 g/ha
  Pre-emergence action against DIGSA in %: 80%
DIGSA; dosage 80 g/ha
  Pre-emergence action against DIGSA in %: 90%
VIOTR [1]; dosage 80 g/ha
  Pre-emergence action against VIOTR in %: 80%
POLCO
  Pre-emergence action against POLCO in %: 80%
AMARE [2]
  Post-emergence action at 20 g/ha against AMARE in %: 80%
VERPE [8]
  Post-emergence action against VERPE in %: 80%
AMARE [4]; [15]
  Pre-emergence action against AMARE in %: 80%
AMARE [4]; [16]
  Pre-emergence action against AMARE in %: 100%
MATIN [5]; dosage 20 g/ha
  Pre-emergence action against MATIN in %: 80%
MATIN [5]; dosage 80 g/ha
  Pre-emergence action against MATIN in %: 100%
ABUTH [6]; [16]
  Pre-emergence action against ABUTH (herbicidal activity): 100%
STEME
  Pre-emergence action against STEME in %: 80%

## CCn1nnnc1NC(=O)c1ccc(C(F)F)c(C(=O)NCC2CC2)c1SC [Example 2-90]
ECHCG [9]
  Post-emergence action against ECHCG in %: 100%
MATIN [10]
  Post-emergence action against MATIN in %: 90%
VERPE [11]
  Pre-emergence action against VERPE in %: 90%
VIOTR [1]; dosage 20 g/ha
  Pre-emergence action against VIOTR in %: 80%
VIOTR [1]; dosage 80 g/ha
  Pre-emergence action against VIOTR in %: 100%
AMARE [2]
  Post-emergence action at 20 g/ha against AMARE in %: 100%
ABUTH [3]
  Post-emergence action against ABUTH in %: 90%
AMARE [4]; [15]
  Pre-emergence action against AMARE in %: 100%
AMARE [4]; [16]
  Pre-emergence action against AMARE in %: 100%
AVEFA [12]
  Post-emergence action at 20 g/ha against AVEFA in %: 80%
AVEFA [13]; 20 g/ha, scored visually after 3 weeks, 100% = plants have died, 0% = like control plants
  Pre-emergence action against AVEFA: 80%
AVEFA [13]; 80 g/ha, pre-emergence
  Pre-emergence action against AVEFA in %: 90%
MATIN [5]; dosage 20 g/ha
  Pre-emergence action against MATIN in %: 100%
MATIN [5]; dosage 80 g/ha
  Pre-emergence action against MATIN in %: 100%
ABUTH [6]; [16]
  Pre-emergence action against ABUTH (herbicidal activity): 100%
ABUTH [6]; dosage 20 g/ha, scored visually after 3 weeks vs untreated controls, 100% = plants have died, 0% = like control plants
  Pre-emergence action against ABUTH (herbicidal activity in percent): 100%
ECHCG [14]; 20 g/ha
  Pre-emergence action against ECHCG in %: 90%
ECHCG [14]; 80 g/ha
  Pre-emergence action against ECHCG in %: 100%
VIOTR [7]; 5 g/ha
  Post-emergence action against VIOTR in %: 100%
VIOTR [7]; 20 g/ha
  Post-emergence action against VIOTR in %: 100%
SETVI
  Pre-emergence action against SETVI in %: 100%
